Results from BindingDB's records for doi:10.1016/j.chembiol.2012.04.012 (Albert Einstein College of Medicine, 2012).

Target: T1, Hypoxanthine-guanine-xanthine phosphoribosyltransferase (Plasmodium falciparum (isolate FCR-3 / Gambia), UniProt P20035)
T1 sequence (P20035 whole entry): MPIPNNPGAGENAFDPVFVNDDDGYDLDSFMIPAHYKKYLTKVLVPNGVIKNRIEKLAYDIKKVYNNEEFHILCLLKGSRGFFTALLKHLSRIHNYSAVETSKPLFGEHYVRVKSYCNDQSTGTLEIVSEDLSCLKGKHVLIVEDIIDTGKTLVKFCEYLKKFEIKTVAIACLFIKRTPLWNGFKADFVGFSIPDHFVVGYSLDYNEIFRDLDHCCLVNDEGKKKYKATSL
Test: Inhbition Assay
Conditions: pH 7.6; 37 °C
Procedure: PfHGXPRT activity was measured using spectrophotometric assay observing the conversion of xanthine and 5-phospho-alpha-D-ribose-1-pyrophosphate to xanthosine-5'-monophosphate and inorganic pyrophosphate (PPi) at 247nm or the conversion of guanine and PRPP to guanosine-5'-monophosphate and PPi on a Varian Cary 100 spectrophotometer.

SMILES: O=c1[nH]cnc2c(NCCCP(=O)(O)O)c[nH]c12 [HGXPRT Inhibitor, 2]
- Ki: 10.6 nM

SMILES: O=c1[nH]cnc2c(N[C@H](CO)CCP(=O)(O)O)c[nH]c12 [HGXPRT Inhibitor, 3]
- Ki: 0.65 nM
